The results in this text go back to PMC5813016 (Nature Communications, 2018).

In assay [1] the target is T1, Serotonin 2b (Homo sapiens, UniProt P41595).
T1 construct: expressed in transfected cells
Description: FLIPR calcium assay, serotonin 2b. The conditions noted are these: for EC50: read-out: Serotonin 2b, Agonist EC50; for IC50: vs EC80 of agonist, read-out: Serotonin 2b, Antagonist IC50. In kind it is cell-based. The protocol: (§1) Activation of the receptor by an agonist in this assay system results in an increase in intracellular calcium levels which is measured using a calcium specific dye. Cells were plated at 7500 cells per well (50 µl per well) in black walled clear bottomed 384-well plates 24 h prior to running the assay. […] Compound solution (10 µl) was added to each well by the FLIPR Tetra® instrument to measure agonist activity of the compound by measuring the change in fluorescence from baseline over a 60 s period (Ex […]). Subsequently 10 µl of agonist (EC80 value) was added to each well by the FLIPR Tetra® instrument to evaluate antagonist activity, with the change in fluorescence from baseline being measured over a 60 s period.
(§2) In vitro data analysis: Agonist/antagonist curves were plotted from individual experiments, and EC50/IC50 values were determined using a four parameter logistic fit.

In assay [2] the target is T2, Muscarinic 1 (Homo sapiens, UniProt P11229).
T2 construct: expressed in transfected cells
T2 sequence (P11229 1-460): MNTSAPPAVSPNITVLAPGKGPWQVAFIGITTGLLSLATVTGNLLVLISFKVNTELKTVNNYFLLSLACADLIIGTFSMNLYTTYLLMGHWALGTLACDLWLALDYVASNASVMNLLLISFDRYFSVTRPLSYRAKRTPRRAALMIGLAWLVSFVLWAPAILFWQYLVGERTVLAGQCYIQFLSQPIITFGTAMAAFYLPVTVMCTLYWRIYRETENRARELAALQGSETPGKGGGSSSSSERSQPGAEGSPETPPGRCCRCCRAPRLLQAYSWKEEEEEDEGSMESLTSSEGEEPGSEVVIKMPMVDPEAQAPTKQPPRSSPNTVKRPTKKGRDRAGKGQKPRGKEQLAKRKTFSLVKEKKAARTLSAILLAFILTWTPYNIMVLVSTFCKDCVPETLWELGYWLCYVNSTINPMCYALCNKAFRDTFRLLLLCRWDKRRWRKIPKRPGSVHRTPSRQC
In words: FLIPR calcium assay, muscarinic 1. In kind it is cell-based. To be noted: for EC50: read-out: Muscarinic 1, Agonist EC50; for IC50: vs EC80 of agonist, read-out: Muscarinic 1, Antagonist IC50. The protocol: as §1, §2

Assay [3] concerns human D1R / β-arrestin2-GFP in U2OS cells. In words: β-arrestin2-GFP membrane recruitment, TIRFM, U2OS cells. To be noted: U2OS cells expressing human D1R, 1 μM agonist, 10 min. In kind it is cell-based. The protocol:
This stable U2OS cell line was generated, obtained and licensed from Professor Marc G. Caron, Duke University, Durham, NC, USA. […] The U2OS cells were cultured under antibiotic selection in DMEM (Invitrogen) containing 25 mM glucose and 4 mM L-glutamine supplemented with 10% dialyzed fetal bovine serum, […] Geneticin, […] Zeocin, and 100 U/ml penicillin/streptomycin (all from Invitrogen) and incubated at 37 °C in 5% CO2. Cells from passage four through ten were used in these experiments. Cells were grown in 35 mm glass bottomed imaging dishes (Mattek Corp). Cells were incubated for 1 h in serum free media (SFM) and subsequently treated for 10 min at 37 °C with 0.01% DMSO (control) or 1 μM of all test compounds dissolved in SFM followed by immediate fixation on ice with a 4% paraformaldehyde/1× phosphate buffered saline solution.
TIRFM was used to visualize proteins at the plasma membrane of cells such as D1 receptors and recruited β-arrestin-GFP[65]. All images were captured using a Zeiss PS.1 Elyra Superresolution fluorescence microscope equipped with TIRF module.
Custom image analysis scripts were developed to automatically identify and quantify β-arrestin membrane recruitment. We employed standard methods of image processing based on grayscale morphology. First 16bit images were transformed to 8bit range via square root transformation to improve identification of punctate structure of varying intensity. Images were smoothed with small Gaussian kernel to eliminate noise (h = 2px, σ = 1). At the next step images were transformed via tophat operation with large kernel (radius 30px) to eliminate non-uniformity of the background. Second tophat transform with small kernel (radius 5px) was used to enhance signal and eliminate local intensity variation around puncta. This image was then processed to find locations of puncta intensity peaks via non-maximal suppression filter with 3px radius of region considered in non-maximal suppression, and threshold 20. Finally the boundaries of puncta were identified using marker controlled watershed operation with peaks serving as foreground markers. After having identified each puncta, we used 8bit transformed but otherwise non-processed images to quantify intensity and area of each region. We focused on two endpoints, number of puncta per cell and integrated intensity of puncta per cell (sum of the products of average intensity and area of each puncta within a cell), both adjusted for cell area as described below. The boundaries of the cells were identified via Otsu's method, followed by hole filling and identification of the largest closely connected component. The area of the foreground was used as normalization factor to account for occasional differences in cell areas in the field of view. Specifically all foreground areas across experiment were pooled and divided by the median of the areas to obtain normalization factor for each image. This factor was then used for adjustment for number of puncta and integrated intensity of puncta, which scale with the number of cells. Puncta outside of cell boundaries were filtered out.
The results were aggregated over batches of cells recorded at the same time, with three or more batches per condition, approximately 20 cells per well. The statistical significance was tested via one-way ANOVA with treatment as a factor. To address the problem of severe inequality of variances across the treatment groups assessed via Bartlett′s test, we used square root transformation. All statistical results for the number of puncta per cell and integrated intensity of puncta per cell are presented for transformed variables. Significant ANOVA findings were followed with post-hoc comparisons with Dunnett′s procedure in case of comparisons with the control group or with false discover rate adjustment[69] otherwise. All statistical tests were performed two-tailed at a 5% level of significance.

Assay [4] relates to human D1R T59A mutant. In words: cAMP assay, D1R mutant T59A. To be noted: relative to wild-type D1R; each table line is one experiment (Experiment # 1-6).
The subject of assay [5] is human D1R T273A mutant. Description: cAMP assay, D1R mutant T273A. The conditions noted are these: relative to wild-type D1R; each table line is one experiment (Experiment # 1-6). Background: Cyclic AMP is a second messenger, typically raised through Gs and lowered through Gi signalling.
In assay [6] the test system is human D1R N334A mutant. Description: cAMP assay, D1R mutant N334A. To be noted: relative to wild-type D1R; each table line is one experiment (Experiment # 1-6).

“Also recorded” adds a separate entry of the source.

T1 sequence (P41595 whole entry): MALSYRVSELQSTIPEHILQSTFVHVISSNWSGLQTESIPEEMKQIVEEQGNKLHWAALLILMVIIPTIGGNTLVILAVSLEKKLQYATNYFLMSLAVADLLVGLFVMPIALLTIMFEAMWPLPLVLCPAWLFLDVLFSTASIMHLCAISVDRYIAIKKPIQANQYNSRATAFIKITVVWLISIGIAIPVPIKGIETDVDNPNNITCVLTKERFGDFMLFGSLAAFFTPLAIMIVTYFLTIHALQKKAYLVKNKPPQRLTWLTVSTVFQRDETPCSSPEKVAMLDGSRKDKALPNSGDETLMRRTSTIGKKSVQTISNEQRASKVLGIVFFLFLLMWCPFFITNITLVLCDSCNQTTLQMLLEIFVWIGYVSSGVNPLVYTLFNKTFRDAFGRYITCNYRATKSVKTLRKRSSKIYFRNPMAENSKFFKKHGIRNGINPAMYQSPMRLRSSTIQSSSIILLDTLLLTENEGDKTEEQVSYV

In general, EC50 refers to the concentration giving half of the maximal effect. A word on the IC50: it is the concentration that inhibits the measured activity by half. With `Cc1cc(Oc2nccc3occc23)ccc1-c1c(C)cnnc1C` [PF-1119], in assay [1], the EC50 was above 10 µM and the IC50 was above 10 µM. In assay [2], the EC50 was above 10 µM and the IC50 is above 10 µM. For the same compound, the “β-arrestin-GFP recruitment to the plasma membrane (TIRFM)” value (“β-arrestin-GFP recruitment” for short) in assay [3] was “significantly lower total signal”.

With `Cc1cc(Oc2cccc(O)c2O)ccc1-c1c(C)ncnc1C` [PF-1437], the “β-arrestin-GFP recruitment” value in assay [3] is “significantly higher signal; also recorded: β-arrestin recruitment profile similar to that of dopamine”. The “fold shift of cAMP functional potency, T59A (EC50 mutant/ EC50 WT)” value in assay [4] was 0.2. For the same compound, in assay [5], the “fold shift of cAMP functional potency, T273A (EC50 mutant/ EC50 WT)” value is given as 0.1. Moreover, in assay [6], the “fold shift of cAMP functional potency, N334A (EC50 mutant/ EC50 WT)” value was determined as 1.2.

For the compound `Cc1cc(Oc2nccc3occc23)ccc1-c1c(C)ncc2nccn12` [PF-6142], in assay [1], the concentration giving a half-maximal response (EC50) was above 10 µM and the 50% inhibitory concentration (IC50) is above 10 µM. In addition, in assay [2], the EC50 was above 10 µM and the IC50 was 4.9 µM. The “β-arrestin-GFP recruitment” value in assay [3] was “significantly lower total signal; also recorded: significantly less recruitment of β-arrestin”. Moreover, the “fold shift of cAMP functional potency, T59A (EC50 mutant/ EC50 WT)” value in assay [4] came to 1.0. The “fold shift of cAMP functional potency, T273A (EC50 mutant/ EC50 WT)” value in assay [5] turned out to be 0.2. Further, the “fold shift of cAMP functional potency, N334A (EC50 mutant/ EC50 WT)” value in assay [6] is reported as 1.3.

As to `Cc1cc(Oc2nccc3occc23)ccc1-n1c(C)nc2cnccc21` [PF-8294], the EC50 in assay [1] and in assay [2] was above 10 µM in each case. In addition, the half-maximal inhibitory concentration (IC50) in assay [1] and in assay [2] was above 10 µM in each case. Further, the “β-arrestin-GFP recruitment” value in assay [3] is recorded as “significantly lower total signal”.

Consider `Cc1cc(Oc2nccc3occc23)ccc1-c1c(C)ncnc1C` [PF-8871], for which, in assay [1], the 50% effective concentration (EC50) was above 10 µM and the IC50 was above 10 µM. Also, in assay [2], the concentration for a half-maximal effect (EC50) was above 10 µM and the IC50 was above 10 µM. In assay [3], the “β-arrestin-GFP recruitment” value is listed as “significantly lower signal than in dopamine groups; also recorded: minimal recruitment of β-arrestin”.
